Structures can show the parent of a compound that is named as a salt. Where two headings read alike, the source gives them in different places.
What was measured:
[1] = plasma half-life and oral bioavailability (statement); conditions: in vivo
[2] = target: T1, α7 nAChR (Rattus norvegicus, UniProt Q05941); assay: whole-cell patch clamp, currents evoked by acetylcholine in KXα7R1; format: cell-based; conditions: for current evoked by 280 micromolar acetylcholine, normalized to current elicited by ACh alone (Mean): -80 mV, n=4; for inhibition at 0.1 µM: read-out: inhibition (α7) at 100 nM
T1 construct: expressed in transfected cells; host or cells: KXα7R1
Excerpt: (§1) Without wishing to be bound to any particular theory applicants believe certain compounds of Formula I exert activity via serine racemase inhibition. Since nicotinic acetylcholine receptors (nAChR) have been validated as a target in analgesia applicants investigated the activity of DHNK at two nAChR subtypes, α7 and α3β4 nAChR. Patch-clamp technique in a whole-cell configuration was used to examine functional activity of ketamine, norketamine, DHNK and HNK metabolites at the α7 and α3β4 neuronal […] receptors (nAChRs). The activity of these compounds at the α3β4 nAChR was investigated using nicotine-stimulated 86Rb+ efflux assays in HEK293 cells expressing the α3β4 nAChR.
Since nicotinic acetylcholine receptors (nAChR) have been validated as a target in analgesia we have investigated the activity of DHNK ([…]) at two nAChR subtypes, α7 and α3β4 nAChR. The patch clamp in a whole cell configuration was used to examine functional activity of ketamine, norketamine, and the DHNK and HNK metabolites on currents evoked by 280 micromolar acetylcholine in the KXα7R1. The data was obtained at −80 mV and normalized to the amplitude of current elicited by ACh alone, n=4.

[3] = target: T2, serine racemase (Homo sapiens, UniProt Q9GZT4); assay: intracellular D-serine concentration in 1321N1 astrocytoma cells; format: cell-based; parameters: host or cells: 1321N1 astrocytoma; conditions: read-out: IC50, reduction of intracellular D-serine
T2 sequence (Q9GZT4 1-340): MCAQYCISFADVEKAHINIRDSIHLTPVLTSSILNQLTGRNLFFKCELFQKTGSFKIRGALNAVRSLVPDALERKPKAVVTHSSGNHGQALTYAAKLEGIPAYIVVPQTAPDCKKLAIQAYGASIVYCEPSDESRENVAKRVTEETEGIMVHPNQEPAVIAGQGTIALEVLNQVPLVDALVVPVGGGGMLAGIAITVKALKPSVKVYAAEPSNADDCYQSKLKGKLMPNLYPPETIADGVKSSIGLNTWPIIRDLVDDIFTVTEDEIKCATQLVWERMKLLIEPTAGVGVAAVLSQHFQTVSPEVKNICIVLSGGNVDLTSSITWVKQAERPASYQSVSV
Excerpt: Applicants have determined that ketamine inhibits NMDA (N-methyl-D-aspartic acid) receptors by inhibiting serine racemase and thereby limiting the concentration of D-serine available to interact with the NMDA receptor. An indirect inhibition of SR activity by ketamine or ketamine metabolites through the inhibition of nAChR activity was hypothesized. PC12 cells were chosen to test the hypothesis since the cell line expresses active SR and α7 and α3β4 nAChRs.
The cell lines selected for this study were PC-12 pheochromocytoma derived from rat adrenal medulla, human-derived 1321N1 astrocytoma, rat-derived C6 glioblastoma, and human-derived HepG2 hepatocellular carcinoma. All of the cell lines were obtained from ATCC (Manassas, Va., USA). […]
(§2) Instrumentation: The CE separations were performed with a P/ACE MDQ system equipped with a laser-induced fluorescence detector (Beckman Instruments, Fullerton, Calif., USA). The laser-induced fluorescence detection was carried out with excitation at 488 nm and emission at 520 nm. […] Quantification was accomplished using area ratios calculated for FITC-D-Ser with FITCD-Arg as the internal standard, where the concentration of the internal standard was set at 5 μM. […]

[4] = target: T3, α3β4 nAChR (Rattus norvegicus, UniProt P04757+P12392); assay: nicotine-stimulated 86Rb+ efflux in HEK293 cells expressing α3β4 nAChR; whole-cell patch clamp; format: cell-based
T3 construct: expressed in transfected cells; host or cells: HEK293
Excerpt: as §1

[5] = target: NMDA receptor; assay: NMDA receptor inhibition; format: binding; conditions: for Ki: read-out: NMDAR Ki
Protocol: Certain compounds of Formula I discussed in this disclosure were tested in the above serine racemase assay, for NMDA receptor inhibition and inhibition of the nicotinic acetylcholine receptor subtype α7. The assay for nicotinic acetylcholorine receptor subtype α7 is given below in Example 6.

[6] = target: T2, serine racemase; assay: serine racemase inhibition assay (intracellular D-serine by CE-LIF); format: cell-based; conditions: 36 h incubation, cell line not stated
Excerpt: The cell lines selected for this study were PC-12 pheochromocytoma derived from rat adrenal medulla, human-derived 1321N1 astrocytoma, rat-derived C6 glioblastoma, and human-derived HepG2 hepatocellular carcinoma. All of the cell lines were obtained from ATCC (Manassas, Va., USA). The PC12 cells were maintained in RPMI7 1640 with L-Gln supplemented with 10% horse serum (heat inactivated), 5% FBS, 1% sodium pyruvate solution, 1% HEPES buffer and 1% penicillin/streptomycin solution. The 1321N1 and C6 cells were maintained in DMEM with L-Gln supplemented with 10% FBS and 1% penicillin/streptomycin solution. The HepG2 cells were maintained in E-MEM supplemented with 1% L-Gln, 10% FBS, 1% sodium pyruvate solution and 1% penicillin/streptomycin solution.
as §2

T1 sequence (Q05941 23-502): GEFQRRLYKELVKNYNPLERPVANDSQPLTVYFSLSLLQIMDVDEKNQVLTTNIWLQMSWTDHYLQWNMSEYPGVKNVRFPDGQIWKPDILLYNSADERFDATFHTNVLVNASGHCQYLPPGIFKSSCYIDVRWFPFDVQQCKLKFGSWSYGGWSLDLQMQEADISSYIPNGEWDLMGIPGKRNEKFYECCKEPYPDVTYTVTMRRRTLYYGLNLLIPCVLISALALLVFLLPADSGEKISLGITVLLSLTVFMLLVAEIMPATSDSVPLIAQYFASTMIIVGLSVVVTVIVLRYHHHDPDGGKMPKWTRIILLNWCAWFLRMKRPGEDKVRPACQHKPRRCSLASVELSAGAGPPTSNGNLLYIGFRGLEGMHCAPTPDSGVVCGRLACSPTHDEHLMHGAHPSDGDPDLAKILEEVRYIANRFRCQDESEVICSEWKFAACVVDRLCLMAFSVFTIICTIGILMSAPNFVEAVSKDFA
T3 sequence (P04757 26-499): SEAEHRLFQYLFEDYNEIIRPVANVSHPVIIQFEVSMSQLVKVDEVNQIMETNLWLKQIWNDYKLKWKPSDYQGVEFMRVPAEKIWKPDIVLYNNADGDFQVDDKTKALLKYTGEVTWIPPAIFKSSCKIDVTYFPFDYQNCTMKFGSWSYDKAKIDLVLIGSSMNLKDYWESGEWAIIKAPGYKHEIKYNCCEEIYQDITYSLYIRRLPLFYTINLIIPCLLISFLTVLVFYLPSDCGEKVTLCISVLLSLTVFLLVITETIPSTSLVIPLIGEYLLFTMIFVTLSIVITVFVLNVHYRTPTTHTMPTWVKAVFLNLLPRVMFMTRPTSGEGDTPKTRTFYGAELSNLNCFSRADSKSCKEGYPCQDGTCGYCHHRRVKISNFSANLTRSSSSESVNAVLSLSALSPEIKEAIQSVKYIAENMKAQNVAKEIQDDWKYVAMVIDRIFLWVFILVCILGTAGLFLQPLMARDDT
T3 sequence (P12392 21-495): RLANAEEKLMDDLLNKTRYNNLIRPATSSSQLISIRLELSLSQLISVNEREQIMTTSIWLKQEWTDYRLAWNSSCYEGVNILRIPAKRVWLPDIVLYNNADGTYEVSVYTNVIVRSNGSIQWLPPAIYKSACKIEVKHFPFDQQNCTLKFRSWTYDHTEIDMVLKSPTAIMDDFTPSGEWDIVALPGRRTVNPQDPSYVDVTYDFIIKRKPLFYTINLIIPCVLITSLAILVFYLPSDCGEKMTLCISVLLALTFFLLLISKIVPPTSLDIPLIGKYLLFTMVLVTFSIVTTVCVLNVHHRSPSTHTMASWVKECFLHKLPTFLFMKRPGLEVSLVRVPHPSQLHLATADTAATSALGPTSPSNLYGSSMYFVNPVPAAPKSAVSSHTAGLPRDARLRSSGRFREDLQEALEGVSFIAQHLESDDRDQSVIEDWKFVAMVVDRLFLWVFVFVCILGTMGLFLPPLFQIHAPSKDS

## NC1(c2ccccc2Cl)CCC=CC1=O (racemic) [(R,S)-DHNK, (R,S)-dehydronorketamine]
[1]
  plasma half-life: long
  oral bioavailability: orally bioavailable
[2]
  activity at α7 nAChR: potent inhibitor
[2]; 100 nM
  current evoked by 280 micromolar acetylcholine, normalized to current elicited by ACh alone (Mean): 0.407
[2]; 1000 nM
  current evoked by 280 micromolar acetylcholine, normalized to current elicited by ACh alone (Mean): 0.205
[2]; read-out: IC50 (α7)
  IC50: ~50 nM
[2]; read-out: IC50 at α7 nAChR
  IC50: 50 nM
[3]
  IC50: 16.4 nM
[4]
  activity at α3β4 nAChR: inactive

## NC1(c2ccccc2Cl)CCCCC1=O (racemic) [(R,S)-norKet, norketamine]
[2]
  activity at α7 nAChR: inactive
  inhibition at 0.1 µM: 46%
[2]; 100 nM
  current evoked by 280 micromolar acetylcholine, normalized to current elicited by ACh alone (Mean): 0.548
[2]; 1000 nM
  current evoked by 280 micromolar acetylcholine, normalized to current elicited by ACh alone (Mean): 0.287

## N[C@]1(c2ccccc2Cl)CCC[C@H](O)C1=O (stereo in doubt) [(2R,6R)-HNK, (2R,6R)-6-Hydroxynorketamine Hydrochloride]
[2]; 100 nM
  current evoked by 280 micromolar acetylcholine, normalized to current elicited by ACh alone (Mean): 0.489
[2]; 1000 nM
  current evoked by 280 micromolar acetylcholine, normalized to current elicited by ACh alone (Mean): 0.354
[2]
  inhibition at 0.1 µM: 51%
[5]
  Ki: > 100000 nM

## N[C@@]1(c2ccccc2Cl)CCC[C@@H](O)C1=O [(2R,6R; 2S,6S)-hydroxynorketamine]
[5]
  activity at the NMDA receptor: not active

## N[C@@]1(c2ccccc2Cl)CCC[C@@H](O)C1=O [(2S,6S)-HNK, (2S,6S)-6-Hydroxynorketamine Hydrochloride]
[1]
  plasma half-life: long
  oral bioavailability: orally bioavailable
[2]; 100 nM
  current evoked by 280 micromolar acetylcholine, normalized to current elicited by ACh alone (Mean): 0.461
[2]; 1000 nM
  current evoked by 280 micromolar acetylcholine, normalized to current elicited by ACh alone (Mean): 0.361
[2]
  inhibition at 0.1 µM: 54%
[5]
  Ki: 21200 nM

## N[C@@]1(c2ccccc2Cl)CCC=CC1=O [(R)-DHNK, (R)-5,6-dehydroxynorketamine hydrochloride]
[5]
  Ki: 74600 nM

## N[C@@]1(c2ccccc2Cl)CCCCC1=O [(R)-norKet, (R)-norketamine, reference compound]
[5]
  Ki: 26500 nM
[6]
  IC50: 40 to 80 nM

## N[C@]1(c2ccccc2Cl)CCC=CC1=O [(S)-DHNK, (S)-1-amino-2′-chloro-5,6-dihydro-[1,1′-biphenyl]-2(1H)-one]
[5]
  Ki: 39000 nM

## N[C@]1(c2ccccc2Cl)CCCCC1=O [(S)-norKet, (S)-norketamine, reference compound]
[5]
  Ki: 2250 ± 220 nM
[6]
  IC50: 50 to 120 nM

## CNC1(c2ccccc2Cl)CCCCC1=O (centres unmarked) [ketamine]
[2]
  activity at α7 nAChR: inactive
[4]
  IC50: 10000 nM
